Laboratory results: US20240108702A1, “Use Of Naturally Occurring Cyclic Peptides For Treatment Of SARS-COV-2 Infection” (The University of Southern California, priority 2021, published 2024)
Like-named read-outs stand apart in the source and are kept apart here. Where a SMILES comes first, the peptide text is derived from it. Bridges are numbered along the chain shown (N, C = ends).

Conditions: cynomolgus

CC[C@H](C)[C@@H]1NC(=O)[C@@H]2CSSC[C@H](NC(=O)[C@H](CCCNC(=N)N)NC(=O)[C@@H]3CSSC[C@H](NC1=O)C(=O)N[C@@H]([C@@H](C)O)C(=O)N[C@@H](CCCNC(=N)N)C(=O)NCC(=O)N[C@@H](Cc1ccccc1)C(=O)N3)C(=O)N[C@@H](CC(C)C)C(=O)N[C@H]1CSSC[C@H](NC(=O)[C@H](C(C)C)NC(=O)CNC(=O)[C@H](CCCNC(=N)N)NC(=O)[C@H](CCCNC(=N)N)NC1=O)C(=O)N[C@@H](CCCNC(=N)N)C(=O)N2 [Peptide 1] (cyclo(GFCRCLCRRGVCRCICTR); disulfide 3-16, 5-14, 7-12)
λz (0.3 mg/kg i.v., Day 1, mean): 0.523 h⁻¹ | λz (1 mg/kg i.v., Day 1, mean): 0.251 h⁻¹ | λz (3 mg/kg i.v., Day 1, mean): 0.078 h⁻¹ | accumulation, mean AUCτ Day 10 vs mean AUC0-∞ Day 1 (5 mg/kg): approximately 1.4 fold | λz (5 mg/kg i.v., Day 1, mean): 0.323 h⁻¹ | λz (5 mg/kg/day i.v., Day 10, mean): 0.157 h⁻¹ | accumulation, mean AUCτ Day 10 vs mean AUC0-∞ Day 1 (10 mg/kg): ~1.5 fold | λz (10 mg/kg i.v., Day 1, mean): 0.192 h⁻¹ | λz (10 mg/kg/day i.v., Day 10, mean): 0.120 h⁻¹ | λz (15 mg/kg i.v., Day 1, mean): 0.149 h⁻¹ | λz (15 mg/kg/day i.v., Day 4, mean): 0.072 h⁻¹ | λz (15 mg/kg/day i.v., Day 7, mean): 0.071 h⁻¹ | λz (15 mg/kg/day i.v., Day 10, mean): 0.078 h⁻¹ | time plasma concentrations detectable post end of infusion (single dose of 0.3 or 1 mg/kg): up to 12 h
